# Assay results reported in ChEMBL document CHEMBL1201862, “PubChem BioAssay data set” (2004).
# Calls of active or inactive are those of the source.
# What was measured:
# [1] = biological target: T1, Protein kinase C zeta type (Homo sapiens, UniProt Q05513); assay type: functional;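 also: measured as one member of a broad kinase profiling panel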
# T1 sequence (Q05513 whole entry): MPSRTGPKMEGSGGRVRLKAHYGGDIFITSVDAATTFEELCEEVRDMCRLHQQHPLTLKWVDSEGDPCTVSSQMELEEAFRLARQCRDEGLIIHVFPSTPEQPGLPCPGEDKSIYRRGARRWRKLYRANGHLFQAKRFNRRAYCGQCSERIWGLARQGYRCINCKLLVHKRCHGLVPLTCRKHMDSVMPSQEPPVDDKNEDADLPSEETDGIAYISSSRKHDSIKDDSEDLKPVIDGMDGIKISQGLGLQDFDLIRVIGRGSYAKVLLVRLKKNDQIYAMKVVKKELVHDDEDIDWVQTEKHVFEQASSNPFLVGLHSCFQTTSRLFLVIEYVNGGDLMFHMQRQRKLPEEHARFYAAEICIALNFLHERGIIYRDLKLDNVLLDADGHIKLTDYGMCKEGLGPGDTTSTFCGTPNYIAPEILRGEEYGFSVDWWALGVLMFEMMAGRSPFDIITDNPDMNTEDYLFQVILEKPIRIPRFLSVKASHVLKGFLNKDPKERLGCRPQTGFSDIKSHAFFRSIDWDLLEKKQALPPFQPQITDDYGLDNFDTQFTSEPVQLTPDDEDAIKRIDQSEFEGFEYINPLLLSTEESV
# [2] = biological target: RAC-gamma serine/threonine-protein kinase (Homo sapiens, UniProt Q9Y243); assay type: functional
# [3] = biological target: Calcium/calmodulin-dependent protein kinase type II subunit gamma (Homo sapiens, UniProt Q13555); assay type: functional
# [4] = biological target: Cyclin-dependent kinase 2 (Homo sapiens, UniProt P24941); assay type: functional;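 also: CDK2 measured as one member of a broad kinome profiling panel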
# SRSF protein kinase 1 = SRSF protein kinase 1 (Homo sapiens, UniProt Q96SB4); assay type: functional;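 also: measured as one member of a kinome-wide kinase profiling panel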
# [5] = biological target: Casein kinase I isoform gamma-1 (Homo sapiens, UniProt Q9HCP0); assay type: functional;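 also: measured as the CSNK1G1 member of a kinome profiling panel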
# [6] = biological target: Tyrosine-protein kinase Lyn (Homo sapiens, UniProt P07948); assay type: functional;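 also: lyn as one member of a kinase panel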
# [7] = biological target: Mitogen-activated protein kinase 9 (Homo sapiens, UniProt P45984); assay type: functional;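 also: value from a kinome panel profiling assay, MAPK9 panel entry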
# [8] = biological target: Mitogen-activated protein kinase kinase kinase kinase 2 (Homo sapiens, UniProt Q12851); assay type: functional;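 also: measured as one member of a kinome-wide kinase panel, with MAP4K2 as the panel entry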
# [9] = biological target: Receptor tyrosine-protein kinase erbB-2 (Homo sapiens, UniProt P04626); experiment: Navigating the Kinome. Panel member name: ERBB2; assay type: functional
# [10] = biological target: Tyrosine-protein kinase ABL1 (Homo sapiens, UniProt P00519); assay type: functional
# [11] = biological target: MAP kinase-interacting serine/threonine-protein kinase 2 (Homo sapiens, UniProt Q9HBH9); assay type: functional
# Ephrin type-A receptor 2 = Ephrin type-A receptor 2 (Homo sapiens, UniProt P29317); assay type: functional;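 also: EPHA2 tested as one member of a kinome-wide kinase panel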
# [12] = biological target: Calcium/calmodulin-dependent protein kinase type 1 (Homo sapiens, UniProt Q14012); assay type: functional
# [13] = biological target: Vascular endothelial growth factor receptor 1 (Homo sapiens, UniProt P17948); assay type: functional;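 also: measured within a kinome-wide profiling panel, FLT1 as the panel member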
# [14] = biological target: Serine/threonine-protein kinase PLK1 (Homo sapiens, UniProt P53350); assay type: functional;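 also: PLK1 measured as one member of a kinome-wide profiling panel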
# [15] = biological target: Glycogen synthase kinase-3 beta (Homo sapiens, UniProt P49841); assay type: functional;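 also: value comes from a broad kinome profiling panel, with GSK3B as the panel member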
# [16] = biological target: BDNF/NT-3 growth factors receptor (Homo sapiens, UniProt Q16620); assay type: functional;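 also: NTRK2 measured as one member of a broad kinome-wide kinase profiling panel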
# [17] = biological target: Dual specificity protein kinase CLK4 (Homo sapiens, UniProt Q9HAZ1); assay type: functional
# [18] = biological target: Dual specificity protein phosphatase 3 (Homo sapiens, UniProt P51452); experiment: VHR1 phosphatase inhibitors, biochemical (AID 1878)
# [19] = biological target: Delta-type opioid receptor (Homo sapiens, UniProt P41143); experiment: Counterscreen for agonists of heterodimerization of the mu 1 (OPRM1) and delta 1 (OPRD1) opioid receptors: Luminescence-based cell-based high throughput dose response assay to identify agonists of OPRD1 homodimerization. [Related pubchem assays (depositor defined):AID504326, AID504355, AID504692, AID504904, AID504905]; assay type: functional
# [20] = biological target: T2, Sentrin-specific protease 6 (Homo sapiens, UniProt Q9GZR1); assay type: functional;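 also: Luminescence-based dose-response confirmatory assay of SENP6 inhibition, following up an ultra-high-throughput screen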
# T2 sequence (Q9GZR1 whole entry): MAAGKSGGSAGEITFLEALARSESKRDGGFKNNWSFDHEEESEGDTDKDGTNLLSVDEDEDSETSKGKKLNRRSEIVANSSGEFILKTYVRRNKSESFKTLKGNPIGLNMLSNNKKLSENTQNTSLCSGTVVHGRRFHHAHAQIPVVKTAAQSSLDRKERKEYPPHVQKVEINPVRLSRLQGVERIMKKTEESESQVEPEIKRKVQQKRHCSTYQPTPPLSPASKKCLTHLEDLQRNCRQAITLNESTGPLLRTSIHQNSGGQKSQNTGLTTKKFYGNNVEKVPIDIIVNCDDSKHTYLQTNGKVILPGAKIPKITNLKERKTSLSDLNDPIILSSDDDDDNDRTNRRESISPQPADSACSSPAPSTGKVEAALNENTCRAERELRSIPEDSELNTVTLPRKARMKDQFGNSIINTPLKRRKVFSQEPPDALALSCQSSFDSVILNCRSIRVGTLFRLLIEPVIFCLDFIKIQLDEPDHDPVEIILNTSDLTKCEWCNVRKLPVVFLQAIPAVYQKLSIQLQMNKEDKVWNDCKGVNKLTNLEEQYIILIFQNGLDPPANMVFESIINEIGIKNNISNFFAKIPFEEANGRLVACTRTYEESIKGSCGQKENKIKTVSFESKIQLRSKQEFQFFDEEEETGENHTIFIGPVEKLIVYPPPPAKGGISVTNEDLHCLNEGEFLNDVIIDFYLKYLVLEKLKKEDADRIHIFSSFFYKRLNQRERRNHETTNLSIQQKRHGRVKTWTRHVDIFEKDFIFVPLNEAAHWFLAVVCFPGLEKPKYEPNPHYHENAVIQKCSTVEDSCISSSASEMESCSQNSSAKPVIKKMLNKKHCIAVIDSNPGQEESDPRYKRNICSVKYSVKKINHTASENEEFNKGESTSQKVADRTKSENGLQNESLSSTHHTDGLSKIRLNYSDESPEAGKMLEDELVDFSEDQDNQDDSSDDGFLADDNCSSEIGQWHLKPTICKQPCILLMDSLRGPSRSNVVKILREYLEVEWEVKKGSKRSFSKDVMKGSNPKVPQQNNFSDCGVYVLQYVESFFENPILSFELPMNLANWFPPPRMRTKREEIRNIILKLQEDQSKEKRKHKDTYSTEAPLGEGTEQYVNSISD
# Sequence of Delta-type opioid receptor (P41143 whole entry): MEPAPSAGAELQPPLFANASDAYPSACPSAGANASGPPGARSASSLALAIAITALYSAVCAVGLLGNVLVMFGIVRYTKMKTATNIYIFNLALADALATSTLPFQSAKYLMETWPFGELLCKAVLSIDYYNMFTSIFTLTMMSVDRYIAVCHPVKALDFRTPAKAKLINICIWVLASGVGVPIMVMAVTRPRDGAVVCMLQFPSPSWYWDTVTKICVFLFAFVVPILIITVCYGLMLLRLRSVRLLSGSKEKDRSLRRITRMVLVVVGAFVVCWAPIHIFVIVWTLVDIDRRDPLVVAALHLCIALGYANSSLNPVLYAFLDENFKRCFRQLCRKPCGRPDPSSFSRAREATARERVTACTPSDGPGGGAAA
# Sequence of Ephrin type-A receptor 2 (P29317 whole entry): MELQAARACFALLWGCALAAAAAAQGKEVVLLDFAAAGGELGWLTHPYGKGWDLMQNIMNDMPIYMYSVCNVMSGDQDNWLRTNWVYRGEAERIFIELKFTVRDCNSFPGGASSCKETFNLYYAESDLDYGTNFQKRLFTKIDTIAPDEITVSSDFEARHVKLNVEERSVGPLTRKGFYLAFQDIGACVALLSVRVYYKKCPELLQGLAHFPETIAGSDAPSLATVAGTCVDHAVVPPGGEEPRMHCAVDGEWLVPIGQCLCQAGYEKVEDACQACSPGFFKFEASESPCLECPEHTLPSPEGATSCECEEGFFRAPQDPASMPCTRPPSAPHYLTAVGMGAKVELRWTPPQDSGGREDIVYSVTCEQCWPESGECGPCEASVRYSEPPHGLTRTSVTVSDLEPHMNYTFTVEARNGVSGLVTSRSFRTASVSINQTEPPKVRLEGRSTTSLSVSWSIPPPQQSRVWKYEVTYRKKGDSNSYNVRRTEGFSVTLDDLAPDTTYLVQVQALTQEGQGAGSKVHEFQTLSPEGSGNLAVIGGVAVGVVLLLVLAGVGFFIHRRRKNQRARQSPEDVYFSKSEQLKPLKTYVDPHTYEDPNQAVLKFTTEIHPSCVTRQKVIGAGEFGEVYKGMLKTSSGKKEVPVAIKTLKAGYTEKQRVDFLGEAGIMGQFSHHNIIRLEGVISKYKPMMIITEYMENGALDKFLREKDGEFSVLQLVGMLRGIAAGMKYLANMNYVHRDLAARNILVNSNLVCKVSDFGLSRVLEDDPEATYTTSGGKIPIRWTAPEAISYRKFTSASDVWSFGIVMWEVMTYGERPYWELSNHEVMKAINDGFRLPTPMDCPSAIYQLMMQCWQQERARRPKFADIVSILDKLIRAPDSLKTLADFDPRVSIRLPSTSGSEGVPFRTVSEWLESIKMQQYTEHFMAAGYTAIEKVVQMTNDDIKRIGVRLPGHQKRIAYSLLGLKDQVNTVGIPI
# Sequence of Serine/threonine-protein kinase PLK1 (P53350 whole entry): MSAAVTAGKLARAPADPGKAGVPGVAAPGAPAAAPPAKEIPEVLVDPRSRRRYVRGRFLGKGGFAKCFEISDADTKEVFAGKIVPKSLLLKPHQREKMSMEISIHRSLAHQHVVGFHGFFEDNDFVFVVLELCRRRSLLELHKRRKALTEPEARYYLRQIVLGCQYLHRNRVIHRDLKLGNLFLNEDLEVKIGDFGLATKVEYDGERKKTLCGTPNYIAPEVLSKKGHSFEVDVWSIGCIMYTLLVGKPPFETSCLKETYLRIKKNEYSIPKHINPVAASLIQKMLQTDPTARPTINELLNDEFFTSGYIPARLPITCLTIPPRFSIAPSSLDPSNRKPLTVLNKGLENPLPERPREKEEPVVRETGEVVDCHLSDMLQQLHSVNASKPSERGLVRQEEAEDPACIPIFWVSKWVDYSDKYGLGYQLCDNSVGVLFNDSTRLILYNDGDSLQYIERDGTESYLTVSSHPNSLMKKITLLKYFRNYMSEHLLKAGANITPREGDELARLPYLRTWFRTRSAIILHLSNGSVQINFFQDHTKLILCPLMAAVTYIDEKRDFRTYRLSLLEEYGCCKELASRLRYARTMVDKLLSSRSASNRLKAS
# Sequence of RAC-gamma serine/threonine-protein kinase (Q9Y243 whole entry): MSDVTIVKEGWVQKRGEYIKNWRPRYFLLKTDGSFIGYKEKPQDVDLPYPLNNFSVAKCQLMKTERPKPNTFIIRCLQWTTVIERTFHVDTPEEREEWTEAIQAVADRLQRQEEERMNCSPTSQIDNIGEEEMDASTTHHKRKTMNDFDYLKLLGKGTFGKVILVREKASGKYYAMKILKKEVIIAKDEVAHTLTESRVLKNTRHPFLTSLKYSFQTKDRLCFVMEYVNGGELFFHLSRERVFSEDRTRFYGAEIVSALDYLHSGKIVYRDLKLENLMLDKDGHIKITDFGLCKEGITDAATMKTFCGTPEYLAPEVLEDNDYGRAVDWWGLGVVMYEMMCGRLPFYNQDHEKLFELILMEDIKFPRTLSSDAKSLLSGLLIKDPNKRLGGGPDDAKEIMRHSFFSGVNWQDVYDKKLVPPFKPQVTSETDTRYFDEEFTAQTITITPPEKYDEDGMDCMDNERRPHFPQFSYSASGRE
# Sequence of Mitogen-activated protein kinase 9 (P45984 whole entry): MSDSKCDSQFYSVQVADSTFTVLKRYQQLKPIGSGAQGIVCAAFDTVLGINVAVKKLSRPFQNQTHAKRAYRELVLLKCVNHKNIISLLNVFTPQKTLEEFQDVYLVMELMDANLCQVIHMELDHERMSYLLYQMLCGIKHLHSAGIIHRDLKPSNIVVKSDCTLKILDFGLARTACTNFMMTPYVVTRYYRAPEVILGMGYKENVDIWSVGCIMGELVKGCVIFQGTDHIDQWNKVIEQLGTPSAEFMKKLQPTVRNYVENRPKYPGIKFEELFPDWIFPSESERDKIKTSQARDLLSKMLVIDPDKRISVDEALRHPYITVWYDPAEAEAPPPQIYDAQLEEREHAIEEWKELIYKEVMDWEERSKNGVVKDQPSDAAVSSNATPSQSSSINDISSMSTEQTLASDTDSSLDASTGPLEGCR
# Sequence of MAP kinase-interacting serine/threonine-protein kinase 2 (Q9HBH9 whole entry): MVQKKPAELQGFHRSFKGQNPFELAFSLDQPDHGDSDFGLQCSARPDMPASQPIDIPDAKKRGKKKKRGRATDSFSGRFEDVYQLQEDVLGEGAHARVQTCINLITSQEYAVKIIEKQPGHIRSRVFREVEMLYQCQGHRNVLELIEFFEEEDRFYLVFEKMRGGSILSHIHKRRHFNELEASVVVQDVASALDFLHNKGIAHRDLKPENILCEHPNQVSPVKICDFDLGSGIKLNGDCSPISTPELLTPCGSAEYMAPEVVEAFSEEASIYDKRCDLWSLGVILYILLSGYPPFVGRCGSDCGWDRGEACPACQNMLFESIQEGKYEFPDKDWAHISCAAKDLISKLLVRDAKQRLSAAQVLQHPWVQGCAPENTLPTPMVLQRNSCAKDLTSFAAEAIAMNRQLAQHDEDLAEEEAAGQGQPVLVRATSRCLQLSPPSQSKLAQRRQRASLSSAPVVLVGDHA
# Sequence of Vascular endothelial growth factor receptor 1 (P17948 whole entry): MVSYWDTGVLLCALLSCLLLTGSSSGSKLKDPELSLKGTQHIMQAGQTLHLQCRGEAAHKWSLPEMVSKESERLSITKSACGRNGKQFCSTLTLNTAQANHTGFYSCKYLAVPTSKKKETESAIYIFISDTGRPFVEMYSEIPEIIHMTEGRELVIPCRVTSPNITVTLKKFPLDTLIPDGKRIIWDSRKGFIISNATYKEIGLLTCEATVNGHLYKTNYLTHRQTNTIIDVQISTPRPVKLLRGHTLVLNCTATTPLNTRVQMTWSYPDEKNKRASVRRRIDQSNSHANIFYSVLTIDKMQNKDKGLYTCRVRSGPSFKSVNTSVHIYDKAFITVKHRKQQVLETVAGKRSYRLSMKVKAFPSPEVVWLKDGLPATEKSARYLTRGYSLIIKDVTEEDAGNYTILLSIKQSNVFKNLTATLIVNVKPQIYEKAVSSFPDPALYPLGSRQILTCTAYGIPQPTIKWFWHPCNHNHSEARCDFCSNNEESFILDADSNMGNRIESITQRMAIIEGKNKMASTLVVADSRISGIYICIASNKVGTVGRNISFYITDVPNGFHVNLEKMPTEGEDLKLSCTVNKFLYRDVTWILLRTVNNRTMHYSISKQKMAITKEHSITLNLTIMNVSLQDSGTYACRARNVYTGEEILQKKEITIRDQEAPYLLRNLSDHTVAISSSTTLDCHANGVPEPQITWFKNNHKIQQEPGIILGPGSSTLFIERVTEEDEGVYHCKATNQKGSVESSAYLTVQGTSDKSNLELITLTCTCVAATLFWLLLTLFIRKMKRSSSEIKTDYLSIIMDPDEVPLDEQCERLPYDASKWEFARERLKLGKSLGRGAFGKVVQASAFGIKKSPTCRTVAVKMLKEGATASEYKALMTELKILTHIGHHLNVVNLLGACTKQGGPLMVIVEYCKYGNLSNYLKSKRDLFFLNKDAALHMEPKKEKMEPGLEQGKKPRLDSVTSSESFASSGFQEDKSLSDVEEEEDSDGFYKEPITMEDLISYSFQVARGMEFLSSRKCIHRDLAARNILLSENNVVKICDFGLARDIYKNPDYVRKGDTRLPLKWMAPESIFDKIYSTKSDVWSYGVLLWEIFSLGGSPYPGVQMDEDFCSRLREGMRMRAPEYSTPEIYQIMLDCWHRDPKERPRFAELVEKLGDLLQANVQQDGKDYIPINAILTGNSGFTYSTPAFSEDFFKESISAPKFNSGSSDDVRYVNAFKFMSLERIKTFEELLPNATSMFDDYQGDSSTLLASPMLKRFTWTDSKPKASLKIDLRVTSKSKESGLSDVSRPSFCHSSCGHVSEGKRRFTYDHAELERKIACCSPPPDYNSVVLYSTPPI
# Sequence of Dual specificity protein phosphatase 3 (P51452 whole entry): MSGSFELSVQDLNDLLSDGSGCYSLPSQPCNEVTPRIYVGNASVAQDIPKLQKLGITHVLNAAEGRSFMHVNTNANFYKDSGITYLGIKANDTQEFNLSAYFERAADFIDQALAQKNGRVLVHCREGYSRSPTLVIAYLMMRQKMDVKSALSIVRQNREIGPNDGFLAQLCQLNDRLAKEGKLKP
smiles,measurement,setting,value
COc1cc2ncn(-c3cc(OCc4ccccc4C(F)(F)F)c(C(N)=O)s3)c2cc1OC [GW843682X],Ki,[1],> 7.94 µM (inactive)
same,Ki,[2],> 10 µM (inactive)
same,Ki,[3],> 6.31 µM (inactive)
same,Ki,[4],> 7.94 µM (inactive)
same,Ki,SRSF protein kinase 1,> 7.94 µM (inactive)
same,Ki,[5],> 6.31 µM (inactive)
same,Ki,[6],> 1.58 µM (inactive)
same,Ki,[7],> 3.98 µM (inactive)
same,Ki,[8],> 6.31 µM (inactive)
same,Ki,[9],1 µM (active)
same,Ki,[10],> 0.631 µM (inactive)
same,Ki,[11],> 10 µM (inactive)
same,Ki,Ephrin type-A receptor 2,> 3.16 µM (inactive)
same,Ki,[12],> 7.94 µM (inactive)
same,Ki,[13],0.126 µM (active)
same,Ki,[14],0.0126 µM (active)
same,Ki,[15],2 µM (active)
same,Ki,[16],> 5.01 µM (inactive)
same,Ki,[17],0.398 µM (active)
CCCc1nc2c(=O)n(C)c(=O)nc-2n(C)n1,IC50,[18],5.55 µM (active)
same,EC50,[19],> 92.5 µM (inactive)
CC(=O)c1ccc(NC2=C(N3CCOCC3)C(=O)c3ccccc3C2=O)cc1,IC50,[20],11.6 µM (active)
